We go through six molecules from patent publication US12139520B2 (priority 2020, dated 2024).

For series [1], the target named is T1, hAMY3 receptor (Homo sapiens, UniProt O60896+P30988).
T1 sequence (P30988 25-474): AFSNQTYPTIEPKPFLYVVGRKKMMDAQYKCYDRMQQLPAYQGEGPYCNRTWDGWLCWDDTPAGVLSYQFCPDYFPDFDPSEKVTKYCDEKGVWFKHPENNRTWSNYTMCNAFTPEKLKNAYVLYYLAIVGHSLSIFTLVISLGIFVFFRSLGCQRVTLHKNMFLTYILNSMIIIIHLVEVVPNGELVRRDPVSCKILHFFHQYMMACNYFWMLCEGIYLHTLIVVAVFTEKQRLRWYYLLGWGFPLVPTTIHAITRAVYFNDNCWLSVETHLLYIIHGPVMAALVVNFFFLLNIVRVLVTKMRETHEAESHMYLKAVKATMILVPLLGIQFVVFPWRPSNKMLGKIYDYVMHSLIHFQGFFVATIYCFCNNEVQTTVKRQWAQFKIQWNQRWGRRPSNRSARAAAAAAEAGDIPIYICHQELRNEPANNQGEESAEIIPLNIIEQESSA
T1 sequence (O60896 24-148 partner): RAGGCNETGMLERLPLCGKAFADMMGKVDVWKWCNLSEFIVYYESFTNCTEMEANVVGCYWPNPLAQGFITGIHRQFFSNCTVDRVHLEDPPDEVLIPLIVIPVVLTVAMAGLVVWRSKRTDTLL
The series is described as follows: cAMP assay for in vitro receptor activation, hAMY3-R. In kind it is cell-based. The settings on record: cAMP assay, hAMY3 receptor; read-out: hAMY3R EC50. The gist of the method: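 Thawed cells from a sub-cloned monoclonal hAMY3-overexpressing line are plated in DPBS containing 0.05% casein and 0.5 mM IBMX. Test compounds are added immediately at graded doses for 30 min at room temperature. Reagents for cAMP detection are then added, and TR-FRET is recorded after one hour.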

Series [2] in a line: Physical stability of peptide analogues (Thioflavin T fibrillation). The series is classed as physicochemical. Particulars: maximum ThT signal normalized between hAMY maximum and buffer background; 40° C., shaking, four days; pH 7 per table title. Summed up: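 ThT fluorescence (450 nm excitation, 480 nm emission; 4 μM dye) was read every 10 min over four days at 40° C under 700 rpm shaking stress, after 1 h in pH 4 acetate or pH 7 phosphate (50 mM). Peak smoothed signal expressed as percent, scaled between buffer background and hAMY maximum.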

Series [3] has as its target hAM1 receptor (Homo sapiens, UniProt O60895+Q16602). The series is described as follows: cAMP assay for in vitro receptor activation, hAM1-R. The series is classed as cell-based. The settings on record: cAMP assay, hAM1 receptor; read-out: hAM1R EC50. Summed up:
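Receptor activation, read as cAMP, was assessed in thawed cells of a monoclonal hAM1-overexpressing stable line, plated at 8000 cells/well in DPBS supplemented with 0.05% casein and 0.5 mM IBMX.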
(cAMP levels reflect the balance of adenylyl cyclase and phosphodiesterase activity.)

SMILES strings stand for the structures. pEC50: −log10 of the molar value. Bridge positions count the residues as written; N and C are the ends. Square brackets hold non-standard residues; d marks the D form. Peptide text beside a SMILES is read from it. Hyp = O=C(O)[C@@H]1C[C@@H](O)CN1; Cit = NC(=O)NCCC[C@H](N)C(=O)O Some results are limits rather than exact numbers.

hAM1 receptor, sequence (Q16602 23-461): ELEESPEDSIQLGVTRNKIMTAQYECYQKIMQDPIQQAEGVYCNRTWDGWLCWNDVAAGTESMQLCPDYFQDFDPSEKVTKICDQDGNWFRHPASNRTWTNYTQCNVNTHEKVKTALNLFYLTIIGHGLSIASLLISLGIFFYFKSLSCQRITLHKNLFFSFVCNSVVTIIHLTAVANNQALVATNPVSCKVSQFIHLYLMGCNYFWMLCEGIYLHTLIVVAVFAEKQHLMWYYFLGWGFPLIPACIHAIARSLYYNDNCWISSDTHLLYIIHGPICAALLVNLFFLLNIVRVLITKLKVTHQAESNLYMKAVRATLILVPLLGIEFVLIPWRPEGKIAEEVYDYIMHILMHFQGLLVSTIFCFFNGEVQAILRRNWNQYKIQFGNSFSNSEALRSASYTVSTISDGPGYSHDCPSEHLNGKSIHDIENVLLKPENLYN
hAM1 receptor, sequence (O60895 43-175 partner): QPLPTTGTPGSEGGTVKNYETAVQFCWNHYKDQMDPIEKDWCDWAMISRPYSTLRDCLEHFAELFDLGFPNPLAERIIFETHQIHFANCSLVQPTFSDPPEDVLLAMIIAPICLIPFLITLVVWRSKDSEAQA

Usually pEC50 stands for the negative decadic logarithm of the EC50, by convention in mol/L. For `CC[C@H](C)[C@H](NC(=O)[C@H](CCC(N)=O)NC(=O)[C@H](Cc1c[nH]cn1)NC(=O)[C@H](C)NC(=O)[C@H](CC(C)C)NC(=O)[C@H](CCCNC(=N)N)NC(=O)[C@H](CCC(N)=O)NC(=O)[C@@H](NC(=O)[C@@H](NC(=O)[C@@H]1CSSC[C@H](NC(=O)CN)C(=O)N[C@@H](CCCNC(=N)N)C(=O)N[C@@H]([C@@H](C)O)C(=O)NCC(=O)N[C@@H]([C@@H](C)O)C(=O)N1)[C@@H](C)O)C(C)C)C(=O)N[C@@H](Cc1ccc(O)cc1)C(=O)N[C@@H](CCC(N)=O)C(=O)N[C@@H](Cc1ccccc1)C(=O)N[C@H](C(=O)N[C@@H](CC(N)=O)C(=O)N[C@@H](CCCCN)C(=O)N[C@@H](CC(=O)O)C(=O)N[C@@H](CCCCN)C(=O)N[C@@H](CC(=O)O)C(=O)N[C@@H](CC(N)=O)C(=O)N[C@H](C(=O)N[C@@H](C)C(=O)N1CCC[C@H]1C(=O)N[C@@H](CCCNC(=N)N)C(=O)N[C@@H](CO)C(=O)N[C@@H](CCCCN)C(=O)N[C@H](C(=O)N[C@@H](CO)C(=O)N1CCC[C@H]1C(=O)N[C@@H](CCC(N)=O)C(=O)N[C@H](C(=O)N[C@@H](Cc1c[nH]c2ccccc12)C(N)=O)[C@@H](C)O)[C@@H](C)CC)C(C)C)[C@@H](C)O` [compound 226] (H-GCRTGTCTVQRLAHQIYQFTNKDKDNVAPRSKISPQTW-NH2; disulfide 2-7; N-terminus assumed), the values for the negative-log EC50 (pEC50) in series [1] and in series [3] were 9.73 and under 5.30, respectively. Further, the “Max ThT signal (%)” value in series [2] is listed as 27.000%.
The corresponding values for `CC[C@H](C)[C@H](NC(=O)[C@H](CCC(N)=O)NC(=O)[C@H](Cc1c[nH]cn1)NC(=O)[C@H](C)NC(=O)[C@H](CC(C)C)NC(=O)[C@H](CCCNC(=N)N)NC(=O)[C@H](CCC(N)=O)NC(=O)[C@@H](NC(=O)[C@@H](NC(=O)[C@@H]1CSSC[C@H](NC(=O)CN)C(=O)N[C@@H](CCCNC(=N)N)C(=O)N[C@@H]([C@@H](C)O)C(=O)NCC(=O)N[C@@H]([C@@H](C)O)C(=O)N1)[C@@H](C)O)C(C)C)C(=O)N[C@@H](Cc1ccc(O)cc1)C(=O)N[C@@H](CCC(N)=O)C(=O)N[C@@H](Cc1ccccc1)C(=O)N[C@H](C(=O)N[C@@H](CC(N)=O)C(=O)N[C@@H](CCCCN)C(=O)N[C@@H](CC(=O)O)C(=O)N[C@@H](CCCCN)C(=O)N[C@@H](CC(=O)O)C(=O)N[C@@H](CC(N)=O)C(=O)N[C@H](C(=O)N[C@@H](C)C(=O)N1CCC[C@H]1C(=O)N[C@@H](CCCNC(=N)N)C(=O)N[C@@H](CO)C(=O)N[C@@H](CCCCN)C(=O)N[C@H](C(=O)N[C@@H](CO)C(=O)N1CCC[C@H]1C(=O)N[C@@H](CCC(N)=O)C(=O)N[C@H](C(=O)N[C@@H](CCSC)C(N)=O)[C@@H](C)O)[C@@H](C)CC)C(C)C)[C@@H](C)O` [compound 237] (H-GCRTGTCTVQRLAHQIYQFTNKDKDNVAPRSKISPQTM-NH2; disulfide 2-7) are 9.63, 5.37 and 0.300%.
The matching figures for `CC[C@H](C)[C@H](NC(=O)[C@H](CCC(N)=O)NC(=O)[C@H](Cc1c[nH]cn1)NC(=O)[C@H](C)NC(=O)[C@H](CC(C)C)NC(=O)[C@H](CCCNC(=N)N)NC(=O)[C@H](CCC(N)=O)NC(=O)[C@@H](NC(=O)[C@@H](NC(=O)[C@@H]1CSSC[C@H](NC(=O)CN)C(=O)N[C@@H](CCCNC(=N)N)C(=O)N[C@@H]([C@@H](C)O)C(=O)NCC(=O)N[C@@H]([C@@H](C)O)C(=O)N1)[C@@H](C)O)C(C)C)C(=O)N[C@@H](Cc1ccc(O)cc1)C(=O)N[C@@H](CCC(N)=O)C(=O)N[C@@H](Cc1ccccc1)C(=O)N[C@H](C(=O)N[C@@H](CC(N)=O)C(=O)N[C@@H](CCCCN)C(=O)N[C@@H](CC(=O)O)C(=O)N[C@@H](CCCCN)C(=O)N[C@@H](CC(=O)O)C(=O)N[C@@H](CC(N)=O)C(=O)N[C@H](C(=O)N[C@@H](C)C(=O)N1CCC[C@H]1C(=O)N[C@@H](CCCNC(=N)N)C(=O)N[C@@H](CO)C(=O)N[C@@H](CCCCN)C(=O)N[C@H](C(=O)N[C@@H](CO)C(=O)N1CCC[C@H]1C(=O)N[C@@H](CCC(N)=O)C(=O)N[C@@H](Cc1ccccc1)C(=O)N1C[C@H](O)C[C@H]1C(N)=O)[C@@H](C)CC)C(C)C)[C@@H](C)O` [compound 238] (H-GCRTGTCTVQRLAHQIYQFTNKDKDNVAPRSKISPQF[Hyp]-NH2; disulfide 2-7; N-terminus assumed): 9.63, under 5.30 and 0.600%.
Consider `CC[C@H](C)[C@H](NC(=O)[C@H](CCC(N)=O)NC(=O)[C@H](Cc1c[nH]cn1)NC(=O)[C@H](C)NC(=O)[C@H](CC(C)C)NC(=O)[C@H](CCCNC(=N)N)NC(=O)[C@H](CCC(N)=O)NC(=O)[C@@H](NC(=O)[C@@H](NC(=O)[C@@H]1CSSC[C@H](NC(=O)CN)C(=O)N[C@@H](CCCNC(=N)N)C(=O)N[C@@H]([C@@H](C)O)C(=O)NCC(=O)N[C@@H]([C@@H](C)O)C(=O)N1)[C@@H](C)O)C(C)C)C(=O)N[C@@H](Cc1ccc(O)cc1)C(=O)N[C@@H](CCC(N)=O)C(=O)N[C@@H](Cc1ccccc1)C(=O)N[C@H](C(=O)N[C@@H](CC(=O)O)C(=O)N[C@@H](CCCCN)C(=O)N[C@@H](Cc1ccccc1)C(=O)N[C@@H](CCCCN)C(=O)N[C@@H](CC(=O)O)C(=O)N[C@@H](CC(N)=O)C(=O)N[C@H](C(=O)N[C@@H](C)C(=O)N1CCC[C@H]1C(=O)N[C@@H](CCCNC(=N)N)C(=O)N[C@@H](CO)C(=O)N[C@@H](CCCCN)C(=O)N[C@H](C(=O)N[C@@H](CO)C(=O)N1CCC[C@H]1C(=O)N[C@@H](CCC(N)=O)C(=O)N[C@H](C(=O)N[C@@H](Cc1ccccc1)C(N)=O)[C@@H](C)O)[C@@H](C)CC)C(C)C)[C@@H](C)O` [compound 239] (H-GCRTGTCTVQRLAHQIYQFTDKFKDNVAPRSKISPQTF-NH2; disulfide 2-7; N-terminus assumed), for which the pEC50 in series [1] was 9.63; in series [3], under 5.30. Moreover, the “Max ThT signal (%)” value in series [2] is 0.200%.
The matching figures for `CC[C@H](C)[C@H](NC(=O)[C@H](CCC(N)=O)NC(=O)[C@H](CC(=O)O)NC(=O)[C@H](C)NC(=O)[C@H](CC(C)C)NC(=O)[C@H](CCCNC(N)=O)NC(=O)[C@H](C)NC(=O)[C@@H](NC(=O)[C@@H](NC(=O)[C@@H]1CSSC[C@H](NC(=O)[C@@H](N)CCCCN)C(=O)N[C@@H](CC(N)=O)C(=O)N[C@@H]([C@@H](C)O)C(=O)N[C@@H](CO)C(=O)N[C@@H]([C@@H](C)O)C(=O)N1)[C@@H](C)O)C(C)C)C(=O)N[C@H](C(=O)N[C@@H](CCC(N)=O)C(=O)N[C@@H](Cc1ccccc1)C(=O)N[C@@H](CO)C(=O)N[C@@H](CC(N)=O)C(=O)N[C@@H](CCCCN)C(=O)N[C@@H](CC(=O)O)C(=O)N[C@@H](CCCCN)C(=O)N[C@@H](C)C(=O)N[C@@H](CCC(N)=O)C(=O)N[C@H](C(=O)N[C@@H](CO)C(=O)N1CCC[C@H]1C(=O)N1CCC[C@H]1C(=O)N[C@H](C(=O)N[C@@H](CCC(=O)O)C(=O)N[C@H](C(=O)NCC(=O)N1CCC[C@H]1C(=O)N[C@@H](CC(N)=O)C(=O)N[C@@H](CO)C(=O)N1C[C@H](O)C[C@H]1C(N)=O)C(C)C)[C@@H](C)O)C(C)C)[C@@H](C)O` [compound 244] (H-KCNTSTCTVA[Cit]LADQITQFSNKDKAQVSPPTEVGPNS[Hyp]-NH2; disulfide 2-7): 11.22, under 5.30 and 4.100%.
The corresponding values for `CC[C@H](C)[C@H](NC(=O)[C@H](CCC(N)=O)NC(=O)[C@H](CC(=O)O)NC(=O)[C@H](C)NC(=O)[C@H](CC(C)C)NC(=O)[C@H](CCCNC(N)=O)NC(=O)[C@H](CC(N)=O)NC(=O)[C@@H](NC(=O)[C@@H](NC(=O)[C@@H]1CSSC[C@H](NC(=O)[C@@H](N)CCCNC(=N)N)C(=O)N[C@@H](CC(N)=O)C(=O)N[C@@H](C)C(=O)N[C@@H](CO)C(=O)N[C@@H]([C@@H](C)O)C(=O)N1)[C@@H](C)O)C(C)C)C(=O)N[C@H](C(=O)N[C@@H](CCC(N)=O)C(=O)N[C@@H](Cc1ccccc1)C(=O)N[C@@H](CO)C(=O)N[C@@H](CC(N)=O)C(=O)N[C@@H](CCCCN)C(=O)N[C@@H](CC(=O)O)C(=O)N[C@@H](CCCCN)C(=O)N[C@@H](C)C(=O)N[C@@H](CCC(N)=O)C(=O)N[C@H](C(=O)N[C@@H](CO)C(=O)N1CCC[C@H]1C(=O)N1CCC[C@H]1C(=O)N[C@H](C(=O)N[C@@H](CCC(=O)O)C(=O)N[C@H](C(=O)NCC(=O)N1CCC[C@H]1C(=O)N[C@@H](CC(N)=O)C(=O)N[C@@H](CO)C(=O)N1C[C@H](O)C[C@H]1C(N)=O)C(C)C)[C@@H](C)O)C(C)C)[C@@H](C)O` [compound 245] (H-RCNASTCTVN[Cit]LADQITQFSNKDKAQVSPPTEVGPNS[Hyp]-NH2; disulfide 2-7; N-terminus assumed) are 10.77, under 5.30 and 3.350%.
